Experimental data from patent US20070155835A1, “USE OF ORTHO-PH[…]/OR DERIVATIVES THEREOF FOR INHIBITING THE ASEXUAL REPRODUCTION OF FUNGI” (Henkel Kommanditgesellschaft auf Aktien (Henkel KGaA), priority 2004, published 2007).

Columns and labels:
[1] = test system: Aspergillus niger (DSM1988); experiment: Sporulation of Aspergillus niger on wort agar plates containing active substance, assessed visually; assay type: cell-based
Method: (§1) The surfaces of wort agar plates were each contaminated with 100 μl of a germ suspension (10^3 CFU/ml) of Aspergillus niger (DSM1988). Different quantities of active substance (solutions in ethanol, see table for final concentrations) had previously been added to the agar plates. The plates were incubated for 3 days at 25° C. Sporulation was assessed visually, and the sporulation rate (in %) was determined.
as §1

[2] = test system: Aspergillus niger (DSM1988); experiment: Growth of the test strain on wort agar plates containing active substance; assay type: cell-based
Method: as §1, with “determined. […] A growth-inhibiting or germ-killing effect occurred only at a concentration of 0.05 wt % OPP.” for “determined.”
as §1

In the case of `CC(C)=CCCC(C)=CCCC(C)=CCO` [Farnesol, reference compound], the “Sporulation [%]” value ([1]; Farnesol concentration 25 μM, comparative experiment) is reported as 90%, the “Sporulation [%]” value ([1]; Farnesol concentration 62.5 μM, comparative experiment) is reported as 75% and the “Sporulation [%]” value ([1]; Farnesol concentration 125 μM, comparative experiment) is reported as 50%. The “Sporulation [%]” value ([1]; Farnesol concentration 250 μM, comparative experiment) was 10% and the “Sporulation [%]” value ([1]; Farnesol concentration 500 μM, comparative experiment) was 0%.

In the case of `Oc1ccccc1-c1ccccc1` [OPP, Ortho-Phenylphenol], the “Sporulation [%]” value ([1]; OPP concentration 0.00001 %, wort agar, 3 days at 25° C.) is reported as 95%, the “Sporulation [%]” value ([1]; OPP concentration 0.00005 %, wort agar, 3 days at 25° C.) is reported as 95% and the “Sporulation [%]” value ([1]; OPP concentration 0.0001 %, wort agar, 3 days at 25° C.) is reported as 85%. The “Sporulation [%]” value ([1]; OPP concentration 0.0005 %, wort agar, 3 days at 25° C.) was 10%, the “Sporulation [%]” value ([1]; OPP concentration 0.001 %, wort agar, 3 days at 25° C.) was 0% and the “Sporulation [%]” value ([1]; OPP concentration 0.005 %, wort agar, 3 days at 25° C.) was 0%. The “Sporulation [%]” value ([1]; OPP concentration 0.05 %, wort agar, 3 days at 25° C.) was “no growth”, the “Sporulation [%]” value ([1]; OPP concentration 0.1 %, wort agar, 3 days at 25° C.) was “no growth” and the “Sporulation [%]” value ([1]; OPP concentration 1.0 %, wort agar, 3 days at 25° C.) was “no growth”. For the same compound, the “Concentration completely suppressing sporulation relative to growth-inhibiting or germ-killing concentration” value ([1]; no growth-inhibiting effect at that concentration) was “fifty times lower”, the “Utilization concentration at which sporulation was completely suppressed” value ([1]; wort agar, 3 days at 25° C.) was 0.001 wt % and the “Concentration at which a growth-inhibiting or germ-killing effect occurred” value ([2]; wort agar, 3 days at 25° C.) was 0.05 wt %.

For “Ortho-Phenylphenol/Silicic Acid Ester [OPP/SAE]”, the “Sporulation [%]” value ([1]; OPP/SEA concentration 0.00001 %, wort agar, 3 days at 25° C.) was 95%, the “Sporulation [%]” value ([1]; OPP/SEA concentration 0.00005 %, wort agar, 3 days at 25° C.) was 95% and the “Sporulation [%]” value ([1]; OPP/SEA concentration 0.0001 %, wort agar, 3 days at 25° C.) was 95%. For the same compound, the “Sporulation [%]” value ([1]; OPP/SEA concentration 0.0005 %, wort agar, 3 days at 25° C.) was 50%, the “Sporulation [%]” value ([1]; OPP/SEA concentration 0.001 %, wort agar, 3 days at 25° C.) was 25% and the “Sporulation [%]” value ([1]; OPP/SEA concentration 0.005 %, wort agar, 3 days at 25° C.) was 0%. The “Sporulation [%]” value ([1]; OPP/SEA concentration 0.01 %, wort agar, 3 days at 25° C.) was 0%, the “Utilization concentration at which sporulation was completely suppressed” value ([1]; wort agar, 3 days at 25° C.) was 0.005 wt % and the “Effect of the concentrations used on growth of the test strain” value ([2]; concentrations of the tables, unless otherwise indicated in the tables) was “did not prevent growth of the test strain”.
